Laboratory results taken from article PMC3243724, “Recognition and Degradation of Plant Cell Wall Polysaccharides by Two Human Gut Symbionts” (PLoS Biology, 2011).

Legend:
Assay in all cases: isothermal titration calorimetry
Assay type in all cases: binding
[1] = target: T1, BT0366 (arabinan HTCS sensor), periplasmic domain (Bacteroides thetaiotaomicron, UniProt Q8AAU8); settings: 25 °C, HEPES pH 8.0; two-site fit, site 1 (stronger)
T1 construct: gene BT_0366
T1 sequence (Q8AAU8 24-810 limits assumed): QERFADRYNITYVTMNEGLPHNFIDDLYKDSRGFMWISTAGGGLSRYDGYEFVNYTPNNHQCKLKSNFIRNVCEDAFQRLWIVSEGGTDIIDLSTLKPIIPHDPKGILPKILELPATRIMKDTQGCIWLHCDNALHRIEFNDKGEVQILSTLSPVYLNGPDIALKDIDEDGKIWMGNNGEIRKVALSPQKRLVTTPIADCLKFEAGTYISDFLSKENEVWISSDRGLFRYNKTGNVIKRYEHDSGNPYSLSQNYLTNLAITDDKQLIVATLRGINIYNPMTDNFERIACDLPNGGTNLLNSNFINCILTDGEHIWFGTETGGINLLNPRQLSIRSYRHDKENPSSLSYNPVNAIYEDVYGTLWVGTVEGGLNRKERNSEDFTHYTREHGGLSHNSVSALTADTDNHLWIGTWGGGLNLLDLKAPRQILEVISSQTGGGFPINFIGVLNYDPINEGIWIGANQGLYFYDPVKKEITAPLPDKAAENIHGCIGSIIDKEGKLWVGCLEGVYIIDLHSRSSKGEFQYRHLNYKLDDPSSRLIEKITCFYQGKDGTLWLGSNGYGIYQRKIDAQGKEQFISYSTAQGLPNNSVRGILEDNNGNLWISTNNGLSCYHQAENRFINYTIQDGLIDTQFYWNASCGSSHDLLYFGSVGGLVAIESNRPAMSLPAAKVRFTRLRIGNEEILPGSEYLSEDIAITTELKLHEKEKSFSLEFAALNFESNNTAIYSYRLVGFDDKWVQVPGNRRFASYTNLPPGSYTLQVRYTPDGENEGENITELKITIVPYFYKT
Excerpt: isothermal titration calorimetry on BT0366 (arabinan HTCS sensor), periplasmic domain

[2] = target: BACOVA_02740 (β-glucan HTCS sensor), periplasmic domain (Bacteroides ovatus, UniProt A0ABU3IRK2); settings: 25 °C, HEPES pH 8.0; for Ka / (M^-1): single-site fit
Excerpt: isothermal titration calorimetry on BACOVA_02740 (β-glucan HTCS sensor), periplasmic domain

[3] = target: BACOVA_04394 (xylan HTCS sensor), periplasmic domain (Bacteroides ovatus, UniProt A0ABU3IPP8); settings: 25 °C, HEPES pH 8.0; for Ka: binding seen, too low to fit (TLTF); for Ka / (M^-1): single-site fit
Excerpt: isothermal titration calorimetry on BACOVA_04394 (xylan HTCS sensor), periplasmic domain

Chain of BACOVA_04394 (xylan HTCS sensor), periplasmic domain (A0ABU3IPP8 21-805 limits assumed): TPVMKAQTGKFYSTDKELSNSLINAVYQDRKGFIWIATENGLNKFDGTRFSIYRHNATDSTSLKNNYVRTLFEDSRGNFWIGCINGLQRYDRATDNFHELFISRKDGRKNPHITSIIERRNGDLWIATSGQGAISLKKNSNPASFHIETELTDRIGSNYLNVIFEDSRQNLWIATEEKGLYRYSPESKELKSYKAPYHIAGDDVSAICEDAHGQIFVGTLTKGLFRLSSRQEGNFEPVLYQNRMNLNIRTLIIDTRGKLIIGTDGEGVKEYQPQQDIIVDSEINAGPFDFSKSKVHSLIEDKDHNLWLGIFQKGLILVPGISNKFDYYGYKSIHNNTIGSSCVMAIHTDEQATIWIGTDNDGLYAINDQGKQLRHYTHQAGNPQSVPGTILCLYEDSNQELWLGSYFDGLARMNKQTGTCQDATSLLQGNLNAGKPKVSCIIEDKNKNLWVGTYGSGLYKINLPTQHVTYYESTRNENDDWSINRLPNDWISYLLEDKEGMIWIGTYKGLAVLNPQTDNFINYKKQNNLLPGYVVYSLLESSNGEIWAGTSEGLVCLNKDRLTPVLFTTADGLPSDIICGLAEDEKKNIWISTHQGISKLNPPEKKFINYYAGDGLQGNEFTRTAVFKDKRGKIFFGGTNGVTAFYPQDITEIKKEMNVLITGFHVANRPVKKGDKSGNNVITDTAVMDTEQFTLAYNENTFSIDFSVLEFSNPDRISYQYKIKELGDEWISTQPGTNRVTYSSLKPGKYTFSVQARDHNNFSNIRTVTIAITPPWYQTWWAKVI
Chain of BACOVA_02740 (β-glucan HTCS sensor), periplasmic domain (A0ABU3IRK2 21-759 limits assumed): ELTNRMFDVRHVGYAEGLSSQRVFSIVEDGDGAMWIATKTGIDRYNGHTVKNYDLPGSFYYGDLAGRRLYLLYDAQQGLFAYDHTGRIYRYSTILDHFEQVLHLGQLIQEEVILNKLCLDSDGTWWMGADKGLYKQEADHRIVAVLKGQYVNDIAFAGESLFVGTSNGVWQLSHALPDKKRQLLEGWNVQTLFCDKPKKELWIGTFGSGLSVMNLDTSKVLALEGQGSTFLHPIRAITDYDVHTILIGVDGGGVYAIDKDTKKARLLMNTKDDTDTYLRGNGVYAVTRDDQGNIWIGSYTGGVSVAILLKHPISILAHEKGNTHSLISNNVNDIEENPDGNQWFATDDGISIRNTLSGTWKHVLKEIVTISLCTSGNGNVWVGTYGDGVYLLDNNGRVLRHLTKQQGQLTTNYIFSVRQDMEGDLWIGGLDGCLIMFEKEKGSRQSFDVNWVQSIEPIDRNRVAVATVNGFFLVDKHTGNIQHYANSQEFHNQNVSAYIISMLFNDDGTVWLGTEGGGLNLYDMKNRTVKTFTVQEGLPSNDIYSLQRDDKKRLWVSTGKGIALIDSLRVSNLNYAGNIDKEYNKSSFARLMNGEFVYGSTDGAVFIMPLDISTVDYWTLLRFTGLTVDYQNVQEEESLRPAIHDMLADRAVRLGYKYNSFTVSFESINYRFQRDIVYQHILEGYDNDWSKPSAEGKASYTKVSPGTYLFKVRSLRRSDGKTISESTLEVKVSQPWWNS

## OC[C@@H]1O[C@@H](OC[C@@H]2O[C@@H](OC[C@@H]3O[C@@H](OC[C@@H]4O[C@@H](OC[C@@H]5O[C@@H](OC[C@@H]6O[C@@H](OC[C@@H]7OC(O)[C@H](O)[C@H]7O)[C@H](O)[C@H]6O)[C@H](O)[C@H]5O)[C@H](O)[C@H]4O)[C@H](O)[C@H]3O)[C@H](O)[C@H]2O)[C@H](O)[C@H]1O (stereo partly drawn) [Arabinoheptaose]
[1]
  Ka / (M^-1): 3.5E4±0.6

## OC[C@@H]1O[C@@H](OC[C@@H]2O[C@@H](OC[C@@H]3O[C@@H](OC[C@@H]4O[C@@H](OC[C@@H]5O[C@@H](OC[C@@H]6OC(O)[C@H](O)[C@H]6O)[C@H](O)[C@H]5O)[C@H](O)[C@H]4O)[C@H](O)[C@H]3O)[C@H](O)[C@H]2O)[C@H](O)[C@H]1O (stereo partly drawn) [Arabinohexaose]
[1]
  Ka / (M^-1): 3.9E3±0.9

## OC[C@@H]1O[C@@H](OC[C@@H]2O[C@@H](OC[C@@H]3O[C@@H](OC[C@@H]4O[C@@H](OC[C@@H]5O[C@@H](OC[C@@H]6O[C@@H](OC[C@@H]7O[C@@H](OC[C@@H]8OC(O)[C@H](O)[C@H]8O)[C@H](O)[C@H]7O)[C@H](O)[C@H]6O)[C@H](O)[C@H]5O)[C@H](O)[C@H]4O)[C@H](O)[C@H]3O)[C@H](O)[C@H]2O)[C@H](O)[C@H]1O (stereo partly drawn) [Arabinooctaose]
[1]
  Ka / (M^-1): 4.8E4±0.1

## OC[C@H]1O[C@@H](O[C@@H]2[C@@H](O)[C@H](O[C@H]3[C@H](O)[C@@H](O)[C@H](O[C@H]4[C@H](O)[C@@H](O)[C@H](O[C@H]5[C@H](O)[C@@H](O)C(O)O[C@@H]5CO)O[C@@H]4CO)O[C@@H]3CO)O[C@H](CO)[C@H]2O)[C@H](O)[C@@H](O)[C@@H]1O (stereo partly drawn) [Glucopentaose A (β3,4,4,4)]
[2]; binding seen, too low to fit (TLTF)
  Ka: ∼5.0×10^2

## OC[C@H]1O[C@@H](O[C@H]2[C@H](O)[C@@H](O)[C@H](O[C@H]3[C@H](O)[C@@H](O)[C@H](O[C@H]4[C@H](O)[C@@H](CO)OC(O)[C@@H]4O)O[C@@H]3CO)O[C@@H]2CO)[C@H](O)[C@@H](O)[C@@H]1O (stereo partly drawn) [Glucotetraose B (β4,4,3)]
[2]
  Ka / (M^-1): 2.5E3±1.3

## OC[C@H]1O[C@@H](O[C@H]2[C@H](O)[C@@H](O)[C@H](O[C@@H]3[C@@H](O)[C@H](O[C@H]4[C@H](O)[C@@H](O)C(O)O[C@@H]4CO)O[C@H](CO)[C@H]3O)O[C@@H]2CO)[C@H](O)[C@@H](O)[C@@H]1O (stereo partly drawn) [Glucotetraose C (β4,3,4)]
[2]
  Ka / (M^-1): 3.2E4±0.7

## OC[C@H]1O[C@@H](O[C@H]2[C@H](O)[C@@H](O)[C@H](O[C@H]3[C@H](O)[C@@H](CO)OC(O)[C@@H]3O)O[C@@H]2CO)[C@H](O)[C@@H](O)[C@@H]1O (stereo partly drawn) [Glucotriose B (β4,3)]
[2]
  Ka / (M^-1): 3.4E3±1.9

## OC1OC[C@@H](O[C@@H]2OC[C@@H](O)[C@H](O)[C@H]2O)[C@H](O)[C@H]1O (stereo partly drawn) [Xylobiose]
[3]
  Ka: ∼5.0×10^2

## OC1OC[C@@H](O[C@@H]2OC[C@@H](O[C@@H]3OC[C@@H](O[C@@H]4OC[C@@H](O[C@@H]5OC[C@@H](O[C@@H]6OC[C@@H](O)[C@H](O)[C@H]6O)[C@H](O)[C@H]5O)[C@H](O)[C@H]4O)[C@H](O)[C@H]3O)[C@H](O)[C@H]2O)[C@H](O)[C@H]1O (stereo partly drawn) [Xylohexaose]
[3]
  Ka: ∼5.0×10^2

## OC1OC[C@@H](O[C@@H]2OC[C@@H](O[C@@H]3OC[C@@H](O[C@@H]4OC[C@@H](O[C@@H]5OC[C@@H](O)[C@H](O)[C@H]5O)[C@H](O)[C@H]4O)[C@H](O)[C@H]3O)[C@H](O)[C@H]2O)[C@H](O)[C@H]1O (stereo partly drawn) [Xylopentaose]
[3]
  Ka / (M^-1): 8.8E4±2.9

## OC1OC[C@@H](O[C@@H]2OC[C@@H](O[C@@H]3OC[C@@H](O[C@@H]4OC[C@@H](O)[C@H](O)[C@H]4O)[C@H](O)[C@H]3O)[C@H](O)[C@H]2O)[C@H](O)[C@H]1O (stereo partly drawn) [Xylotetraose]
[3]
  Ka / (M^-1): 6.8E5±1.2

## OC1OC[C@@H](O[C@@H]2OC[C@@H](O[C@@H]3OC[C@@H](O)[C@H](O)[C@H]3O)[C@H](O)[C@H]2O)[C@H](O)[C@H]1O (stereo partly drawn) [Xylotriose]
[3]
  Ka / (M^-1): 1.1E3±0.1
